Consider 35 compounds from patent US8962627B2, “Oxime derivatives and their use as allosteric modulators of metabotropic glutamate receptors” (Prestwick Chemical, Inc., priority 2009, dated 2015).

Counter-ions that a name gives are not always drawn. Where only a bound is given, the exact number is not on record here.

For `ON=c1cc(-c2cc3ccccc3cn2)oc2cccc(F)c12` [Example 9], the melting point fell in the range of 275 to 278 °C. The same measure for `COc1ccc2cc(-c3cc(=NO)c4ccccc4o3)ncc2c1` [Example 13, 2-(7-methoxy-isoquinolin-3-yl)-chromen-4-one oxime]: 239 to 241 °C; for `Cl.O=S1(=O)CCN(CCOc2ccc3oc(-c4cc5sccc5cn4)cc(=NO)c3c2)CC1`: 195 to 197 °C; for `COc1cccc2cnc(-c3cc(=NO)c4ccccc4o3)cc12` [Example 19, 2-(5-methoxy-isoquinolin-3-yl)-chromen-4-one oxime]: 245 to 247 °C. The same measure for `Cc1cc2c(=NO)cc(-c3cc4ccccc4cn3)oc2cc1C#Cc1ccccc1` [Example 25]: 248 to 250 °C; for `ON=c1cc(-c2cc3ccc(O)cc3cn2)oc2ccccc12` [Example 60, 2-(7-hydroxy-isoquinolin-3-yl)-chromen-4-one oxime]: 248 to 250 °C; for `Cl.NCCOc1ccc2oc(-c3cc4cccn4cn3)cc(=NO)c2c1`: > 270 °C (dec.). `ON=c1cc(-c2cc3cccn3cn2)oc2ccc(OCCn3ccnc3)cc12` (as salt: sodium) [Example 105, 6-(2-imidazol-1-O-ethoxy)-2-pyrrolo[1,2-c]pyrimidin-3-yl-chromen-4-one oxime]: the melting point was > 250 °C (dec.). For `ON=c1cc(-c2cc3ccccc3cn2)oc2cc(-c3ccc(-c4ccccc4)cc3)ccc12` [Example 48, 7-(4-biphenyl)-2-isoquinolin-3-yl-chromen-4-one oxime] the value was 283 to 285 °C. Turning to `N#Cc1ccc2oc(-c3cc4ccccc4cn3)cc(=NO)c2c1` [Example 38, 6-cyano-2-isoquinolin-3-yl-chromen-4-one oxime], the melting point was 280 °C (dec.). The same measure for `Cl.ON=c1cc(-c2cc3sccc3cn2)oc2ccc(OCCN3CCCOCC3)cc12`: 223 to 226 °C; for `ON=c1cc(-c2cc3c(Br)cccc3cn2)oc2ccccc12` [Example 17, 2-(5-bromo-isoquinolin-3-yl)-chromen-4-one oxime]: 268 to 270 °C; for `CN(C)CCCOc1ccc2oc(-c3cc4cccn4cn3)cc(=NO)c2c1.Cl`: > 270 °C (dec.). `ON=c1cc(-c2cc3ccc(Cl)cc3cn2)oc2ccccc12` [Example 16, 2-(7-chloro-isoquinolin-3-yl)-chromen-4-one oxime] yielded a melting point of 260 to 261 °C. For `CN(C)CCOc1ccc2oc(-c3cc4cccn4cn3)cc(=NO)c2c1.Cl` the value was > 275 °C (dec.); for `ON=c1cc(-c2cc3ccccc3cn2)oc2c(Cl)cccc12` [Example 8, 8-chloro-2-isoquinolin-3-yl-chromen-4-one oxime], 270 to 272 °C; for `CN1CCN(CCOc2ccc3oc(-c4cc5ccccc5cn4)cc(=NO)c3c2)CC1` [Example 46, 2-isoquinolin-3-yl-6-[2-(4-methyl-piperazin-1-yl)-ethoxy]-chromen-4-one oxime], 233 to 236 °C. As to `Cl.ON=c1cc(-c2cc3cccn3cn2)oc2ccc(OCCNC3CCCC3)cc12`, the melting point is > 230 °C (dec.).

The compound `ON=c1cc(-c2cc3sccc3cn2)oc2ccc(OCCc3ccc(F)cc3)cc12` (as salt: hydrochloride) [Example 130, 6-[2-(4-Fluoro-phenyl)-ethoxy]-2-thieno[3,2-c]pyridin-6-yl-chromen-4-one oxime] gave a melting point of 228 to 234 °C. As for `Cc1cc2c(=NO)cc(-c3cc4ccccc4cn3)oc2cc1Br` [Example 3, 7-bromo-2-isoquinolin-3-yl-6-methyl-chromen-4-one oxime], the melting point is 267 to 270 °C. For `ON=c1cc(-c2cc3ccccc3cn2)oc2cc(-c3ccccc3)ccc12` [Example 47, 2-isoquinolin-3-yl-7-phenyl-chromen-4-one oxime] the value was 275 to 278 °C. For the compound `CN1CCN(CCCNc2ccc3oc(-c4cc5ccccc5cn4)cc(=NO)c3c2)CC1` [Example 45, 2-isoquinolin-3-yl-6-[3-(4-methyl-piperazin-1-yl)-propylamino]-chromen-4-one oxime], the melting point was 208 to 211 °C. For `Cc1cc(C)n2cnc(-c3cc(=NO)c4ccccc4o3)cc12` [Example 64, 2-(5,7-dimethyl-Pyrrolo[1,2-c]pyrimidin-3-yl)-chromen-4-one oxime] the value was > 250 °C (dec.); for `CCN1CCN(CCOc2ccc3oc(-c4cc5cccn5cn4)cc(=NO)c3c2)CC1.Cl.Cl` [Example 121], > 240 °C (dec.). With `CN1CCN(CCCNc2ccc3c(=NO)cc(-c4cc5ccccc5cn4)oc3c2)CC1` [Example 49, 2-isoquinolin-3-yl-7-[3-(4-methyl-piperazin-1-yl)-propylamino]-chromen-4-one oxime], the melting point is 228 to 233 °C.

Take `Nc1cccc(C#Cc2ccc3c(=NO)cc(-c4cc5ccccc5cn4)oc3c2)c1` [Example 29, 7-(3-aminophenyl)ethynyl-2-isoquinolin-3-yl-chromen-4-one oxime]: the melting point lay within 272 to 275 °C. The same measure for `ON=c1cc(-c2cc3cc[nH]c3cn2)oc2ccccc12` [Example 75, 2-(1H-Pyrrolo[2,3-c]pyridin-5-yl)-chromen-4-one oxime]: 270 to 275 °C (dec.); for `O=c1[nH]c(-c2c/c(=N\O)c3ccccc3o2)cc2ccccc12` [Example 72, 3-{4-[(E)-Hydroxyimino]-4H-chromen-2-yl}-2H-isoquinolin-1-one]: 310 to 315 °C (dec.). The same measure for `ON=c1cc(-c2cc3cccn3cn2)oc2ccc(OCCc3ccc(F)cc3)cc12` (as salt: hydrochloride) [Example 109, 6-[2-(4-fluoro-phenyl)-ethoxy]-2-pyrrolo[1,2-c]pyrimidin-3-yl-chromen-4-one oxime, hydrochloride]: 234 to 236 °C; for `ON=c1cc(-c2cc3ccccc3cn2)oc2cc(C#Cc3ccccc3Cl)ccc12` [Example 32, 7-(2-chlorophenyl)ethynyl-2-isoquinolin-3-yl-chromen-4-one oxime]: 292 to 297 °C; for `CN(C)c1ccc(C#Cc2ccc3c(=NO)cc(-c4cc5ccccc5cn4)oc3c2)cc1` [Example 27, 7-(4-dimethylaminophenyl)ethynyl-2-isoquinolin-3-yl-chromen-4-one oxime]: 235 to 240 °C. The same measure for `COc1cc2cnc(-c3cc(=NO)c4ccccc4o3)cc2cc1OC` [Example 14, 2-(6,7-dimethoxy-isoquinolin-3-yl)-chromen-4-one oxime]: 266 to 269 °C. As for `ON=c1cc(-c2cc3c(cn2)ncn3Cc2ccccc2)oc2ccccc12` [Example 68, 2-(1-Benzyl-1H-imidazo[4,5-c]pyridin-6-yl)-chromen-4-one oxime], the melting point is 148 to 150 °C.

`Cl.ON=c1cc(-c2cc3sccc3cn2)oc2ccc(OCCN3CCc4ccccc4C3)cc12` gave a melting point of 234 to 237 °C.

The compound `ON=c1cc(-c2cc3ccccc3cn2)oc2c(F)cc(F)cc12` [Example 7, 6,8-difluoro-2-isoquinolin-3-yl-chromen-4-one oxime] came in with a melting point of 253 to 256 °C.
